Converted amounts (≈) assume the structure as drawn.
Details: for aqueous solubility: pH 6.8

SMILES | MDR1-MDCK efflux ratio | intrinsic clearance, human liver microsomes [mL/min/kg] | intrinsic clearance, rat liver microsomes [mL/min/kg] | aqueous solubility [µg/mL]
O=C(O)c1cc2cc(O)c(O)cc2c(C(=O)c2ccc(O)c(O)c2)n1 |  | 35.5 | 110 | 57.9 (≈ 170 µM)
O=c1c2cccc(C(F)(F)F)c2ncn1C1CCCC1 | 0.528 | 115 | 317 | 
Cc1ncccc1NC(=O)OC(C)(C)C | 0.755 | ≤ 4.74 | 21.1 | 
CC(=O)N1CCCN(C(=O)Cc2csc(C(C)C)n2)CC1 | 20.4 | ≤ 4.74 | 33.4 | 55.1 (≈ 178 µM)
O=C(Nc1nncs1)c1ccc(N2CCC3(CCCCC3)C2)nc1 | 0.729 |  |  | 0.66 (≈ 1.92 µM)
Fc1ccc(Nc2nc(N3CCCCC3)c3nccnc3n2)cc1 | 0.305 |  |  | 0.12 (≈ 0.37 µM)
COc1ccc2c(c1)C=C(CN1CCC(c3cc(-c4cncnc4)cc(C)n3)CC1)CO2 | 1.42 | 49.8 | 201 | 22.9 (≈ 53.3 µM)
Cc1nc2n(c1CN1CCN(c3ncccn3)CC1)CCCC2 | 7.45 | 29.1 | 1180 | 
Cc1noc(C2CCN(C(=O)C3(c4cccc(F)c4)CCC3)CC2)n1 | 0.861 | 54.1 | 2450 | 76.3 (≈ 222 µM)
CCCN(Cc1ccccc1)C(=O)CC1(N)CCC1 | 11.9 | ≤ 4.74 | 725 | 56.4 (≈ 217 µM)
COc1ccc(C(=O)N2CCCC2)cc1NC(=O)c1cc(F)c(F)c(F)c1F |  | ≤ 4.74 | 90.1 | 43.9 (≈ 111 µM)
CC(C)(C)c1ccc(C2=NC3(CCNCC3)NC2=O)cc1 | 33.8 | 6.52 | 59.6 | 45 (≈ 158 µM)
Cc1cc2nc(CCC(=O)N3CCC(c4ccc(C(=O)N(C)C)c(N)n4)CC3)[nH]c2cc1C | 36.2 | 107 | 320 | 39.7 (≈ 88.4 µM)
O=C(NC1CCN(c2ccc(OC(F)(F)F)cc2)CC1)N1CCC1 | 0.716 | ≤ 4.74 | 26.4 | 57 (≈ 166 µM)
CCOc1ccc(C(=O)Nc2cnn(C3CCOCC3)c2)cn1 | 1.41 | ≤ 4.74 | 106 | 39.9 (≈ 126 µM)
Cc1ccc2c(CC(=O)N(C)CC(N)=O)coc2c1C |  |  |  | 34.9 (≈ 127 µM)
O=C(CCCNC(=O)NC1CCCCC1)Nc1cc(C2CC2)n[nH]1 |  |  |  | 43.9 (≈ 132 µM)
CCOC(=S)SCC(=O)Nc1nc(-c2ccc(C3CCCCC3)cc2)cs1 | 0.229 | 267 | 1390 | 2.18 (≈ 5.18 µM)
CCc1cc2c(OCC(=O)N3CCCC3)ncnc2s1 |  | 25.8 | 597 | 
Cc1nc(C)c2c(C)c(C(=O)N(C)Cc3ccc(C)o3)sc2n1 | 1.1 | 36 | 2890 | 37.5 (≈ 114 µM)
CC(C)(C)C(=O)Nc1sc2c(c1C#N)CCC2 |  |  |  | 1.91 (≈ 7.69 µM)
CC(C)c1noc(CN(C)C2CCCC2)n1 |  | 15.9 | 657 | 17.3 (≈ 77.3 µM)
Cc1nnc(NC(C2CC2)C2CC2)c(C#N)c1C |  |  |  | 7.54 (≈ 31.1 µM)
CCCn1c(=O)[nH]c2nc(-c3ccc(S(=O)(=O)O)cc3)[nH]c2c1=O |  | ≤ 4.74 | ≤ 10.7 | 52.1 (≈ 149 µM)
COC(C)(C)C(=O)Nc1ccnc(C(C)(C)C)n1 | 0.599 | 10.9 | 106 | 

Now from value to compound:

MDR1-MDCK efflux ratio | intrinsic clearance, human liver microsomes [mL/min/kg] | intrinsic clearance, rat liver microsomes [mL/min/kg] | aqueous solubility [µg/mL] | SMILES
0.197 | 182 | 1190 | 39.6 (≈ 124 µM) | COc1ccc(/C=C/C(=O)c2c(C)nc3ccccc3c2N)cc1
1.23 | ≤ 4.74 | ≤ 10.7 |  | Cc1nc(C(=O)NCC(=O)O)c(O)c2ccc(Oc3ccccc3)cc12
0.678 | 28.8 | 166 | 2.4 (≈ 6.08 µM) | O=C(c1cccc(Cl)c1)N1CCN(C(=O)c2ccc3ccccc3c2O)CC1
2.87 | 31.9 | 210 | 43.6 (≈ 140 µM) | CC(=O)N(c1ccc(C)cc1)c1nc(Cn2ccnc2)cs1
0.895 | ≤ 4.74 | 51.4 |  | Cc1ccccc1NC(=O)Cn1nnc(C2CC2)n1
5.19 | 183 | 1330 | 19.8 (≈ 47 µM) | O=c1c2cccn2c2ccccc2n1CCCN1CCC(c2ccc(Cl)cc2)CC1
7.22 | 448 | 4750 |  | CC(C)CN(Cc1cnn(C)c1)C(=O)c1cccc(-c2cnccn2)c1
0.671 | 56.5 | 1000 | 65.2 (≈ 189 µM) | Cc1cc(N2CCCCC2)nc(CNC(=O)c2ccccc2Cl)n1
0.511 | 45.6 | 459 | 36.6 (≈ 118 µM) | CC(C)c1noc(-c2ccc(N(C)Cc3cccnc3)nc2)n1
1.62 | ≤ 4.74 | ≤ 10.7 | 37.2 (≈ 147 µM) | O=C(O)c1c2ccccc2nn1Cc1ccccc1
0.618 | 21.6 | 49.2 | 32.2 (≈ 101 µM) | O=C(CCc1cccs1)Nc1ccc(N2CCOCC2)cn1
52.5 | 5.04 | 353 | 60.9 (≈ 161 µM) | COCCNC(=O)CN1CCN(c2nccn2-c2cccc(Cl)c2)CC1
0.493 | 52.6 | 656 |  | OC1CCN(c2nccc(-c3cccs3)n2)CC1
7.15 | 15.3 | 376 | 45.2 (≈ 129 µM) | Cc1ccccc1COC1CN(C(=O)Cn2c(=O)[nH]c3ccccc32)C1
 | 4.92 | 49.6 |  | Cn1c2cc(S(C)=O)sc2c2cnn(Cc3cccc(N)c3)c(=O)c21 (centres undefined)
 | 13 | 36.1 |  | NCc1ccc(-n2cnc3ccccc32)cc1Cl
 | 35 | 339 | 4.25 (≈ 12.1 µM) | O=c1[nH]c2ccccc2n1C1CCN(c2ncnc3sccc23)CC1

MDR1-MDCK efflux ratio | intrinsic clearance, human liver microsomes [mL/min/kg] | intrinsic clearance, rat liver microsomes [mL/min/kg] | aqueous solubility [µg/mL] | SMILES
60 | 345 | 2300 |  | Cc1cc(Nc2ccc(F)cn2)cc(C2CCN(C(=O)CCn3ncc4ccccc43)C2)n1 (centres undefined)
9.61 | 131 | 1110 | 35.1 (≈ 78.9 µM) | CS(=O)(=O)N(CC(=O)Nc1ccccc1C(=O)NCc1ccco1)c1ccc(F)cc1
0.843 | 24.4 | 238 |  | Fc1cc(-c2ccncc2)ccc1CNc1ncccn1
0.979 | 63.8 | 1090 | 74.3 (≈ 220 µM) | COc1ccc(CCNCc2ccc(-c3ccccc3)o2)cc1OC
 | 61 | 658 | 42.6 (≈ 150 µM) | Fc1cccc(N[C@H]2CCCN[C@H]2Cc2ccccc2)c1
0.516 | 21.8 | 145 |  | Cc1noc(C)c1-c1cc(-c2ccccc2Cl)nc(C2CC2)n1
0.28 | 127 | 1730 | 11.7 (≈ 33.6 µM) | Cc1cc2cc(C(=O)N(Cc3ccc4c(c3)OCO4)C3CC3)ccc2o1
0.607 | 13.5 | 29 | 59.1 (≈ 260 µM) | O=C(NCCc1ccccc1)c1cnccn1
0.774 | 84.5 | 309 | 46.6 (≈ 151 µM) | Cc1ncc2c(n1)CN(CCCc1nc3ccccc3o1)CC2
1.26 | 272 | 503 | 2.28 (≈ 5.38 µM) | COC(=O)CC1=NN(c2ccc(OC)cc2)C(=O)/C1=C(/C)NCc1ccc(OC)cc1
 | 10.6 | ≤ 10.7 |  | NS(=O)(=O)C#Cc1ccccc1
18.8 | ≤ 4.74 | ≤ 10.7 |  | CN(C)c1ccncc1CN1CCN(c2ccc(C(N)=O)cc2)CC1
56.1 | 112 | 1180 | 52.5 (≈ 146 µM) | O=C(CN1CCc2ccccc21)N1CCC(c2nc3ccccc3[nH]2)CC1
9.52 | 218 | 2960 | 69.7 (≈ 164 µM) | COc1ccccc1CNC(=O)c1cnc(C2CCN(C(=O)C(C)(C)C)CC2)nc1C
25 | 80.2 | 165 | 3.72 (≈ 7.19 µM) | c1ccc(-c2c(-c3ccc(OCCN4CCCC4)cc3)[nH]c3ncnc(NCC4SCCS4)c23)cc1
531 | 96.8 | 765 |  | c1nn(C2CCOCC2)cc1Nc1ncc2nnn(-c3ccc4cn[nH]c4c3)c2n1
